Like-named read-outs stand apart in the source and are kept apart here.
What was measured:
[1] = biological target: T1, Pin1 (Homo sapiens, UniProt Q13526); assay: SPR (Biacore S200, Pin1 immobilized on CM5); also PPIase assay IC50 […]; format: binding
T1 construct: human Pin1 with C-terminal His tag (pET-30a-pin1, E. coli BL21)

[2] = biological target: T1, Pin1; assay: as above; format: binding; remark: listed apart in the source

T1 sequence (Q13526 whole entry): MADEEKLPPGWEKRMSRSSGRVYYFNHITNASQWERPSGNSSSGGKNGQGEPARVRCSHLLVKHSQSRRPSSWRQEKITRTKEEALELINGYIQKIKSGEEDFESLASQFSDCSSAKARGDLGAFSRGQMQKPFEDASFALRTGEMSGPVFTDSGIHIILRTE

| Kd [1] | Kd [2] | Compound |
| --- | --- | --- |
| 9.79 µM |  | NS(=O)(=O)c1ccc(-c2[nH]c3ccc(Cl)cc3c2-c2ccc(Cl)cc2)cc1 [HWH8-33, 2-(4-aminosulfonylphenyl)-3-(4-chlorophenyl)-5-chloro-indole] |
|  | 4.87 µM | NS(=O)(=O)c1ccc(-c2[nH]c3ccc(Cl)cc3c2-c2cccc(Cl)c2)cc1 [HWH8-36, 2-(4-aminosulfonylphenyl)-3-(3-chlorophenyl)-5-chloro-indole] |

Source: publication PMC10083437, “Small molecules targeting Pin1 as potent anticancer drugs” (Frontiers in Pharmacology, 2023)
